{"source": "ChEMBL document CHEMBL5325418", "about": "“Studies on diketopiperazine and dipeptide analogs as opioid receptor ligands” (Eur J Med Chem, 2023)", "note": "Square brackets hold non-standard residues; d marks the D form. Peptide text beside a SMILES is read from it. * marks the point of attachment. ξ: configuration not given here. ξPhe(3-OMe) = COc1cccc(CC(N)C(=O)O)c1; ξPhe(2-I) = NC(Cc1ccccc1I)C(=O)O; Nphe = O=C(O)CNCc1ccccc1; Boc = CC(C)(C)OC(=O)*"}
{"target": "Mu-type opioid receptor (Homo sapiens, UniProt P35372)", "sequence (P35372 whole entry)": "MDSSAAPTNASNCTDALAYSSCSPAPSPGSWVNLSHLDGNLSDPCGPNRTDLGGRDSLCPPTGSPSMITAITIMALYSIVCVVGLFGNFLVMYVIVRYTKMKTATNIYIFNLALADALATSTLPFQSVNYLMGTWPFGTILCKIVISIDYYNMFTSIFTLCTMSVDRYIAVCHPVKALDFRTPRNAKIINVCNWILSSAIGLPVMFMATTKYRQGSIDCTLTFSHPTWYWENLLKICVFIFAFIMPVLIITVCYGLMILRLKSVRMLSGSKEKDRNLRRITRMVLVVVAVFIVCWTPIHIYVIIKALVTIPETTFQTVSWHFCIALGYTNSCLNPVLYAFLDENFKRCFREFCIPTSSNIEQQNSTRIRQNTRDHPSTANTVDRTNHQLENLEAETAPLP", "experiment": "Displacement of [3H]DAMGO from human MOR expressed in CHO cell membranes assessed as inhibition constant incubated for 60 mins by microbeta 2 scintillation counting method", "set-up": "species or system Cell membrane", "settings": "not given", "units": {"Ki": "µM"}}
{"molecule": "COC(=O)C(Cc1cccc(OC)c1I)NC(=O)CNCc1cccnc1", "note": "(stereo unspecified)", "Ki": "> 10"}
{"molecule": "COC(=O)C(Cc1cccc(OC)c1I)NC(=O)CNC(C)c1ccccc1", "note": "(stereo unspecified)", "Ki": "> 10"}
{"molecule": "COc1cccc(CC2NC(=O)CNC2=O)c1I", "note": "(stereo unspecified)", "Ki": "> 10"}
{"molecule": "COC(=O)C(Cc1ccccc1I)NC(=O)CNCc1ccccc1", "note": "(stereo unspecified) (H-[Nphe]-[ξPhe(2-I)]-OMe)", "Ki": "> 10"}
{"molecule": "COC(=O)C(Cc1cccc(OC)c1I)NC(=O)[C@@H](N)Cc1ccccc1", "note": "(mixture of isomers)", "Ki": "> 10"}
{"molecule": "CNCC(=O)NC(Cc1cccc(OC)c1I)C(=O)OC", "note": "(stereo unspecified)", "Ki": "> 10"}
{"molecule": "COc1cccc(CC2NC(=O)CN(CCc3ccccc3)C2=O)c1I", "note": "(stereo unspecified)", "Ki": "> 10"}
{"molecule": "COC(=O)C(Cc1cccc(OC)c1C)NC(=O)CNCc1ccccc1", "note": "(stereo unspecified)", "Ki": "> 10"}
{"molecule": "COC(=O)C(Cc1cccc(OC)c1)NC(=O)CN(Cc1ccccc1)C(=O)OC(C)(C)C", "note": "(stereo unspecified) (Boc-[Nphe]-[ξPhe(3-OMe)]-OMe)", "Ki": "> 10"}
{"molecule": "COc1cccc(CC2NC(=O)[C@@H]3CCCN3C2=O)c1I", "note": "(stereo partly specified)", "Ki": "> 10"}
{"system": "not listed separately", "experiment": "Metabolic stability in human plasma assessed as half life at 100 uM measured upto 24 hrs by LC-MS/MS analysis", "assay_type": "ADME, cell-free", "settings": "24 h, 100 µM", "units": {"t1/2": "h"}}
{"molecule": "COC(=O)C(Cc1cccc(OC)c1C)NC(=O)CNCc1ccccc1", "note": "(stereo unspecified)", "t1/2": 2.5282}
{"system": "not listed separately", "experiment": "Plasma protein binding in human assessed as bound fraction at 1 uM by LC-MS/MS analysis", "assay_type": "ADME, cell-free", "settings": "not given", "units": {"PPB": "%"}}
{"molecule": "COC(=O)C(Cc1cccc(OC)c1C)NC(=O)CNCc1ccccc1", "note": "(stereo unspecified)", "PPB": 89.36}
{"system": "not listed separately", "experiment": "Metabolic stability in Sprague-Dawley rat plasma assessed as half life at 100 uM measured upto 24 hrs by LC-MS/MS analysis", "assay_type": "ADME, cell-free", "settings": "not given", "units": {"half-life at 100 µM": "min"}}
{"molecule": "COC(=O)C(Cc1cccc(OC)c1C)NC(=O)CNCc1ccccc1", "note": "(stereo unspecified)", "half-life at 100 µM": "< 1"}
{"system": "not listed separately", "experiment": "Plasma protein binding in dog assessed as bound fraction at 1 uM by LC-MS/MS analysis", "assay_type": "ADME, cell-free, Canis lupus familiaris", "settings": "not given", "units": {"PPB": "%"}}
{"molecule": "COC(=O)C(Cc1cccc(OC)c1C)NC(=O)CNCc1ccccc1", "note": "(stereo unspecified)", "PPB": 94.28}
{"system": "BEND3", "experiment": "Apparent permeability coefficient of the compound across blood brain barrier in mouse BEND3 cells at 10 ug/ml measured upto 120 mins by LC-MS/MS analysis", "assay_type": "functional, cell-based", "settings": "dose 10.0 µg/ml"}
{"molecule": "COC(=O)C(Cc1cccc(OC)c1C)NC(=O)CNCc1ccccc1", "note": "(stereo unspecified)", "Pe": "6.25 10^-3cm/min"}
{"system": "not listed separately", "experiment": "Metabolic stability in Beagle dog plasma assessed as half life at 100 uM measured upto 24 hrs by LC-MS/MS analysis", "assay_type": "ADME, cell-free, Canis lupus familiaris", "settings": "24 h, 100 µM", "units": {"t1/2": "h"}}
{"molecule": "COC(=O)C(Cc1cccc(OC)c1C)NC(=O)CNCc1ccccc1", "note": "(stereo unspecified)", "t1/2": 4.321}
{"target": "Delta-type opioid receptor (Homo sapiens, UniProt P41143)", "sequence (P41143 whole entry)": "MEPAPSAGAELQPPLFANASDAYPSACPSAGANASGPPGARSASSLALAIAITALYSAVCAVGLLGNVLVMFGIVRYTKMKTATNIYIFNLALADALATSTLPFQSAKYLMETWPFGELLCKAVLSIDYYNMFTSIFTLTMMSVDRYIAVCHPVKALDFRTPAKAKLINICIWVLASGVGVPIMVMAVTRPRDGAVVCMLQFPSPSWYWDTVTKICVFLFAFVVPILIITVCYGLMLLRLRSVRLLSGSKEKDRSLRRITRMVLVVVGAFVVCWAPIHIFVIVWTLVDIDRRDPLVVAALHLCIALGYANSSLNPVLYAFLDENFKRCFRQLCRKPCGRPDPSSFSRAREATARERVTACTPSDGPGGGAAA", "experiment": "Displacement of [3H]DADLE from human DOR expressed in CHO cell membranes assessed as inhibition constant incubated for 60 mins by microbeta 2 scintillation counting method", "set-up": "species or system Cell membrane", "settings": "not given", "units": {"Ki": "µM"}}
{"molecule": "COC(=O)C(Cc1cccc(OC)c1I)NC(=O)CNCc1cccnc1", "note": "(stereo unspecified)", "Ki": "> 10"}
{"molecule": "COC(=O)C(Cc1cccc(OC)c1I)NC(=O)CNC(C)c1ccccc1", "note": "(stereo unspecified)", "Ki": "> 10"}
{"molecule": "COc1cccc(CC2NC(=O)CNC2=O)c1I", "note": "(stereo unspecified)", "Ki": "> 10"}
{"molecule": "COC(=O)C(Cc1ccccc1I)NC(=O)CNCc1ccccc1", "note": "(stereo unspecified) (H-[Nphe]-[ξPhe(2-I)]-OMe)", "Ki": "> 10"}
{"molecule": "COC(=O)C(Cc1cccc(OC)c1I)NC(=O)[C@@H](N)Cc1ccccc1", "note": "(mixture of isomers)", "Ki": "> 10"}
{"molecule": "CNCC(=O)NC(Cc1cccc(OC)c1I)C(=O)OC", "note": "(stereo unspecified)", "Ki": "> 10"}
{"molecule": "COc1cccc(CC2NC(=O)CN(CCc3ccccc3)C2=O)c1I", "note": "(stereo unspecified)", "Ki": "> 10"}
{"molecule": "COC(=O)C(Cc1cccc(OC)c1C)NC(=O)CNCc1ccccc1", "note": "(stereo unspecified)", "Ki": "> 10"}
{"molecule": "COC(=O)C(Cc1cccc(OC)c1)NC(=O)CN(Cc1ccccc1)C(=O)OC(C)(C)C", "note": "(stereo unspecified) (Boc-[Nphe]-[ξPhe(3-OMe)]-OMe)", "Ki": "> 10"}
{"molecule": "COc1cccc(CC2NC(=O)[C@@H]3CCCN3C2=O)c1I", "note": "(stereo partly specified)", "Ki": "> 10"}
{"system": "not listed separately", "experiment": "Metabolic stability in CD-1 mouse plasma assessed as half life at 100 uM measured upto 24 hrs by LC-MS/MS analysis", "assay_type": "ADME, cell-free", "settings": "not given", "units": {"half-life at 100 µM": "min"}}
{"molecule": "COC(=O)C(Cc1cccc(OC)c1C)NC(=O)CNCc1ccccc1", "note": "(stereo unspecified)", "half-life at 100 µM": "< 1"}
{"species": "Homo sapiens", "experiment": "Selectivity ratio of Ki for displacement of [3H]DADLE from human DOR expressed in CHO cell membranes to Ki for displacement of [3H]U69593 from human KOR expressed in HEK cell membranes", "settings": "not given"}
{"molecule": "COC(=O)C(Cc1cccc(OC)c1I)NC(=O)CNC(C)c1ccccc1", "note": "(stereo unspecified)", "Ratio Ki": "> 13"}
{"molecule": "COC(=O)C(Cc1cccc(OC)c1I)NC(=O)[C@@H](N)Cc1ccccc1", "note": "(mixture of isomers)", "Ratio Ki": "> 5"}
{"molecule": "COc1cccc(CC2NC(=O)CN(CCc3ccccc3)C2=O)c1I", "note": "(stereo unspecified)", "Ratio Ki": "> 1.9"}
{"molecule": "COC(=O)C(Cc1cccc(OC)c1C)NC(=O)CNCc1ccccc1", "note": "(stereo unspecified)", "Ratio Ki": "> 53"}
{"target": "Kappa-type opioid receptor (Homo sapiens, UniProt P41145)", "sequence (P41145 whole entry)": "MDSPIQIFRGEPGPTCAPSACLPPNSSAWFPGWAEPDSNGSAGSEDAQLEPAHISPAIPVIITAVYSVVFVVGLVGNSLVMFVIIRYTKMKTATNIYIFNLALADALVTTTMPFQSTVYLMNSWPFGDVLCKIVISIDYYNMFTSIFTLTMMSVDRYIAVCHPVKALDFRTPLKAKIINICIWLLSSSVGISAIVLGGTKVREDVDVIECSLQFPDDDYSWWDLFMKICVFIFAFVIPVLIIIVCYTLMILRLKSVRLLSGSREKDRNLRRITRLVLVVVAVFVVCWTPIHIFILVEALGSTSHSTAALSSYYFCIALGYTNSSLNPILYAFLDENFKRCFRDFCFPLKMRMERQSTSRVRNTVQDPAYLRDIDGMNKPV", "experiment": "Displacement of [3H]U69593 from human KOR expressed in HEK cell membranes assessed as inhibition constant incubated for 60 mins by microbeta 2 scintillation counting method", "set-up": "species or system Cell membrane", "settings": "not given", "units": {"Ki": "µM"}}
{"molecule": "COC(=O)C(Cc1cccc(OC)c1I)NC(=O)CNCc1cccnc1", "note": "(stereo unspecified)", "Ki": "> 10"}
{"molecule": "COC(=O)C(Cc1cccc(OC)c1I)NC(=O)CNC(C)c1ccccc1", "note": "(stereo unspecified)", "Ki": 0.765}
{"molecule": "COc1cccc(CC2NC(=O)CNC2=O)c1I", "note": "(stereo unspecified)", "Ki": "> 10"}
{"molecule": "COC(=O)C(Cc1ccccc1I)NC(=O)CNCc1ccccc1", "note": "(stereo unspecified) (H-[Nphe]-[ξPhe(2-I)]-OMe)", "Ki": "> 10"}
{"molecule": "COC(=O)C(Cc1cccc(OC)c1I)NC(=O)[C@@H](N)Cc1ccccc1", "note": "(mixture of isomers)", "Ki": 2.17}
{"molecule": "CNCC(=O)NC(Cc1cccc(OC)c1I)C(=O)OC", "note": "(stereo unspecified)", "Ki": "> 10"}
{"molecule": "COc1cccc(CC2NC(=O)CN(CCc3ccccc3)C2=O)c1I", "note": "(stereo unspecified)", "Ki": 5.11}
{"molecule": "COC(=O)C(Cc1cccc(OC)c1C)NC(=O)CNCc1ccccc1", "note": "(stereo unspecified)", "Ki": 0.19}
{"molecule": "COC(=O)C(Cc1cccc(OC)c1)NC(=O)CN(Cc1ccccc1)C(=O)OC(C)(C)C", "note": "(stereo unspecified) (Boc-[Nphe]-[ξPhe(3-OMe)]-OMe)", "Ki": "> 10"}
{"molecule": "COc1cccc(CC2NC(=O)[C@@H]3CCCN3C2=O)c1I", "note": "(stereo partly specified)", "Ki": "> 10"}
{"system": "not listed separately", "experiment": "Metabolic stability in Sprague-Dawley rat liver microsomes assessed as intrinsic clearance at 100 uM measured upto 24 hrs in presence of NADPH by LC-MS/MS analysis", "assay_type": "ADME, Microsome", "settings": "not given", "units": {"Intrinsic clearance": "µL/min/mg"}}
{"molecule": "COC(=O)C(Cc1cccc(OC)c1C)NC(=O)CNCc1ccccc1", "note": "(stereo unspecified)", "Intrinsic clearance": 1112}
{"species": "Homo sapiens", "experiment": "Selectivity ratio of Ki for displacement of [3H]DAMGO from human MOR expressed in CHO cell membranes to Ki for displacement of [3H]U69593 from human KOR expressed in HEK cell membranes", "settings": "not given"}
{"molecule": "COC(=O)C(Cc1cccc(OC)c1I)NC(=O)CNC(C)c1ccccc1", "note": "(stereo unspecified)", "Ratio Ki": "> 13"}
{"molecule": "COC(=O)C(Cc1cccc(OC)c1I)NC(=O)[C@@H](N)Cc1ccccc1", "note": "(mixture of isomers)", "Ratio Ki": "> 5"}
{"molecule": "COc1cccc(CC2NC(=O)CN(CCc3ccccc3)C2=O)c1I", "note": "(stereo unspecified)", "Ratio Ki": "> 1.9"}
{"molecule": "COC(=O)C(Cc1cccc(OC)c1C)NC(=O)CNCc1ccccc1", "note": "(stereo unspecified)", "Ratio Ki": "> 53"}
